Assay in all cases: Greenhouse experiment, post-emergence treatment
One assay concerns STEME. Format: in vivo, Stellaria media. The note with it: post-emergence method, application rate 63 g/ha. The protocol: (§1) The seeds of the test plants were sown separately for each species. […] For this purpose, the test plants were either sown directly and grown in the same containers, or they were first grown separately as seedlings and transplanted into the test containers a few days prior to treatment. Depending on the species, the plants were kept at 10-25° C. or 20-35° C., respectively. The test period extended over 2 to 4 weeks. During this time, the plants were tended, and their response to the individual treatments was evaluated. Evaluation was carried out using a scale from 0 to 100. 100 means no emergence of the plants, or complete destruction of at least the aerial moieties, and 0 means no damage, or normal course of growth. A moderate herbicidal activity is given at values of at least 60, a good herbicidal activity is given at values of at least 70, and a very good herbicidal activity is given at values of at least 85. […] [table]

A further assay relates to CAPBP. Format: in vivo, Capsella bursa-pastoris. As to conditions: post-emergence method, application rate 63 g/ha. Here is the method: as §1
Another assay deals with SETVI. Format: in vivo, Setaria viridis. The note with it: post-emergence method, application rate 63 g/ha. Here is the method:
as §1

The test system of a further assay is ECHCG. Format: in vivo, Echinochloa crus-galli. As to conditions: post-emergence method, application rate 125 g/ha. The protocol: as §1
For the next assay, the system named is AMARE. In kind it is in vivo, Amaranthus retroflexus. As to conditions: post-emergence method, application rate 125 g/ha. The protocol: as §1
The test system of a further assay is SETFA. Format: in vivo, Setaria faberi. The note with it: post-emergence method, application rate 125 g/ha. Here is the method:
as §1

A further assay has as its system ELEIN. Format: in vivo, Eleusine indica. As to conditions: post-emergence method, application rate 125 g/ha. Here is the method:
as §1

The test system of the next assay is PHBPU. Format: in vivo, Pharbitis purpurea. As to conditions: post-emergence method, application rate 125 g/ha. Here is the method: as §1
The test system of the next assay is ABUTH. In kind it is in vivo, Abutilon theophrasti. The note with it: post-emergence method, application rate 125 g/ha. The protocol: as §1

Structures are written as SMILES.

On to `CC(C)(F)c1nc(N)nc(Nc2c(F)cccc2Oc2cc(C(F)(F)F)cc(C(F)(F)F)c2)n1` [Example 52], for which the “herbicidal activity against STEME” value with STEME is on record as “very good (a very good herbicidal activity is given at values of at least 85)”. The “herbicidal activity against CAPBP” value in the assay with CAPBP is reported as “very good (a very good herbicidal activity is given at values of at least 85)”. Besides, the “herbicidal activity against SETVI” value in the assay with SETVI is “very good (a very good herbicidal activity is given at values of at least 85)”.
For the compound `COc1cc(C)cc(Oc2cccc(F)c2Nc2nc(N)nc(C(C)(C)F)n2)c1` [Example 63], the “herbicidal activity against ECHCG” value in the assay with ECHCG is reported as “very good (a very good herbicidal activity is given at values of at least 85)”. Also, in the assay with AMARE, the “herbicidal activity against AMARE” value is reported as “very good (a very good herbicidal activity is given at values of at least 85)”. In addition, the “herbicidal activity against SETFA” value in the assay with SETFA is on record as “very good (a very good herbicidal activity is given at values of at least 85)”.
As for `CC(C)(F)c1nc(N)nc(Nc2c(F)cccc2Oc2cc(Cl)cc(OC(F)(F)F)c2)n1` [Example 64], in the assay with ELEIN, the “herbicidal activity against ELEIN” value is reported as “very good (a very good herbicidal activity is given at values of at least 85)”. In addition, the “herbicidal activity against SETFA” value in the assay with SETFA is on record as “very good (a very good herbicidal activity is given at values of at least 85)”. For the same compound, the “herbicidal activity against PHBPU” value in the assay on PHBPU is reported as “very good (a very good herbicidal activity is given at values of at least 85)”.
Regarding `COc1cc(Oc2cccc(F)c2Nc2nc(N)nc(C(C)(C)F)n2)cc(C(F)(F)F)c1` [Example 65], the “herbicidal activity against ECHCG” value with ECHCG is on record as “very good (a very good herbicidal activity is given at values of at least 85)”. Further, the “herbicidal activity against SETFA” value in the assay on SETFA is given as “very good (a very good herbicidal activity is given at values of at least 85)”. Also, in the assay on ABUTH, the “herbicidal activity against ABUTH” value was “very good (a very good herbicidal activity is given at values of at least 85)”.
For `CC(C)(F)c1nc(N)nc(Nc2c(F)cccc2Oc2cc(I)cc(I)c2)n1` [Example 67], the “herbicidal activity against ECHCG” value in the assay on ECHCG is listed as “good (a good herbicidal activity is given at values of at least 70)”. Further, the “herbicidal activity against SETFA” value with SETFA is listed as “good (a good herbicidal activity is given at values of at least 70)”.
With `CCOc1cc(OCC)cc(Oc2cccc(F)c2Nc2nc(N)nc(C(C)(C)F)n2)c1` [Example 68], the “herbicidal activity against ECHCG” value with ECHCG is “very good (a very good herbicidal activity is given at values of at least 85)”. The “herbicidal activity against SETFA” value in the assay with SETFA is “very good (a very good herbicidal activity is given at values of at least 85)”. The “herbicidal activity against ABUTH” value with ABUTH is on record as “very good (a very good herbicidal activity is given at values of at least 85)”.
